Results from patent US10653717B2, “Antibiotic compositions” (priority 2016, dated 2020).
Read-outs that look alike come from different tables or passages of the source.

How the values were obtained:
[1] = test system: E. coli DHB4 trxA^−B^−C^−; assay: microbe, parasite or virus in culture; format: cell-based, Escherichia coli; conditions: Escherichia coli, 24 h, read-out: MIC of ebselen in the presence of silver
Protocol: (§1) Since Trx and GSH/Grx are major thiol-dependent systems, investigated were the effects of Ag^+ with ebselen in combination on Trx or GSH system-deficient E. coli redox mutants.
(§2) Serial dilutions of ebselen and AgNO3 were added to the individual wells. The minimum inhibitory concentration (MIC) was determined after 24 h culture at 37° C.

E. coli DHB4 gor^− = assay: microbe, parasite or virus in culture; format: cell-based, Escherichia coli; conditions: Escherichia coli, 24 h, read-out: MIC of ebselen in the presence of silver
Protocol: as §1, §2

E. coli DHB4 trxA^− = assay: microbe, parasite or virus in culture; format: cell-based, Escherichia coli; conditions: Escherichia coli, 24 h, read-out: MIC of ebselen in the presence of silver
Protocol: as §1, §2

E. coli DHB4 trxB^− = assay: microbe, parasite or virus in culture; format: cell-based, Escherichia coli; conditions: Escherichia coli, 24 h, read-out: MIC of ebselen in the presence of silver
Protocol: as §1, §2

E. coli DHB4 gshA^− = assay: microbe, parasite or virus in culture; format: cell-based, Escherichia coli; conditions: read-out: MIC of ebselen in the presence of silver
Protocol: as §1, §2

[2] = test system: E. coli DHB4 gor^−grxA^−B^−C^−; assay: microbe, parasite or virus in culture; format: cell-based, Escherichia coli; conditions: Escherichia coli, 24 h, read-out: MIC of ebselen in the presence of silver
Protocol: as §1, §2

[3] = test system: E. coli DHB4 trxA^−gshA^−; assay: microbe, parasite or virus in culture; format: cell-based, Escherichia coli; conditions: read-out: MIC of ebselen in the presence of silver
Protocol: as §1, §2

E. coli DHB4 trxC^− = assay: microbe, parasite or virus in culture; format: cell-based, Escherichia coli; conditions: read-out: MIC of ebselen in the presence of silver
Protocol: as §1, §2

[4] = test system: E. coli DHB4 grxA^−trxA^−; assay: microbe, parasite or virus in culture; format: cell-based, Escherichia coli; conditions: Escherichia coli, 24 h, read-out: MIC of ebselen in the presence of silver
Protocol: as §1, §2

ECL-2: E. cloacae 2301# = assay: MIC of silver with antibiotics on clinical isolated MDR Gram-negative bacteria; format: cell-based, Enterobacter cloacae; conditions: antibiotic 4 μM
Protocol: (§3) There are five clinically most difficult-to-treat MDR Gram-negative pathogen species: Klebsiella pneumonia, Acinetobacter baumannii, Pseudomonas aeruginosa, Enterobacter cloacae and Escherichia coli. One strain from each species was isolated, and overnight cultures were diluted 1:1000 times in LB medium, and treated with serial concentrations of Ag^+ and antibiotics in combinations for 24 h (Table 10).
(§4) Five clinical isolated MDR Gram-negative strains were grown until an OD600 nm of 0.4, and were diluted 1:1,000 into 100 μl LB medium in 96 micro-well plates. […] The cultures treated with the same serial dilutions of 100 μl ebselen and silver nitrate were used as the positive control.

[5] = test system: AB-1: Acinetobacter baumannii H#; assay: as above; format: cell-based; conditions: antibiotic 4 μM
Protocol: as §3, §4

[6] = test system: PA-1: Pseudomonas aeruginosa 1298#; assay: as above; format: cell-based; conditions: antibiotic 4 μM
Protocol: as §3, §4

[7] = test system: ECO-1: Escherichia coli 1139#; assay: as above; format: cell-based; conditions: antibiotic 4 μM
Protocol: as §3, §4

O=c1c2ccccc2[se]n1-c1ccccc1 [ebselen, 2-phenyl-1,2-benzisoselenazol-3(2H)-one]
5 µM: MIC of silver in the presence of different antibiotics [7]
4 µM: MIC (E. coli DHB4 gshA^−; Escherichia coli, 24 h) | MIC ([3]; Escherichia coli, 24 h) | MIC (E. coli DHB4 trxC^−)
40 µM: MIC (E. coli DHB4 gshA^−; Escherichia coli, 24 h, Silver 0 μM, gshA^−, 24 h) | MIC ([2]; Silver 0 μM) | MIC ([3]; Escherichia coli, 24 h, Silver 0 μM, trxA^−gshA^−, 24 h) | MIC ([4]; Silver 0 μM)
80 µM: MIC ([1]; Silver 0 μM) | MIC (E. coli DHB4 gor^−; Silver 0 μM) | MIC (E. coli DHB4 trxA^−; Silver 0 μM) | MIC (E. coli DHB4 trxB^−; Silver 0 μM) | MIC (E. coli DHB4 trxC^−; Escherichia coli, 24 h, Silver 0 μM, trxC^−, 24 h)
0.5 µM: MIC ([1]; Silver 10 μM) | MIC ([1]; Silver 20 μM) | MIC (E. coli DHB4 gor^−; Silver 20 μM) | MIC (E. coli DHB4 trxA^−; Silver 20 μM) | MIC (E. coli DHB4 trxB^−; Silver 10 μM) | MIC (E. coli DHB4 trxB^−; Silver 20 μM) | MIC (E. coli DHB4 gshA^−; Escherichia coli, 24 h, Silver 10 μM, gshA^−, 24 h) | MIC ([2]; Silver 10 μM) | MIC ([3]; Escherichia coli, 24 h, Silver 10 μM, trxA^−gshA^−, 24 h) | MIC (E. coli DHB4 trxC^−; Escherichia coli, 24 h, Silver 20 μM, trxC^−, 24 h) | MIC ([4]; Silver 10 μM)
8 µM: MIC (E. coli DHB4 trxC^−; Escherichia coli, 24 h)
1 µM: MIC ([1]; Silver 5 μM) | MIC (E. coli DHB4 gor^−; Silver 5 μM) | MIC (E. coli DHB4 gor^−; Silver 10 μM) | MIC (E. coli DHB4 trxA^−; Silver 5 μM) | MIC (E. coli DHB4 trxA^−; Silver 10 μM) | MIC (E. coli DHB4 trxB^−; Silver 5 μM) | MIC (E. coli DHB4 gshA^−; Escherichia coli, 24 h, Silver 5 μM, gshA^−, 24 h) | MIC ([2]; Silver 5 μM) | MIC ([3]; Escherichia coli, 24 h, Silver 5 μM, trxA^−gshA^−, 24 h) | MIC (E. coli DHB4 trxC^−; Escherichia coli, 24 h, Silver 10 μM, trxC^−, 24 h) | MIC ([4]; Silver 5 μM)
2 µM: MIC (E. coli DHB4 gshA^−) | MIC [3] | MIC (E. coli DHB4 trxC^−; Escherichia coli, 24 h, Silver 5 μM, trxC^−, 24 h)
10 µM: MIC of silver in the presence of different antibiotics (ECL-2: E. cloacae 2301#) | MIC of silver in the presence of different antibiotics [5]
20 µM: MIC of silver in the presence of different antibiotics [6]
